{"source": "patent US7342018B2", "about": "“Urokinase inhibitors and uses thereof” (Wilex AG, priority 1998, dated 2008)", "key": {"[1]": {"target": "Sc-tPA (single chain tPA) (Homo sapiens, UniProt P00750)", "sequence (P00750 36-562)": "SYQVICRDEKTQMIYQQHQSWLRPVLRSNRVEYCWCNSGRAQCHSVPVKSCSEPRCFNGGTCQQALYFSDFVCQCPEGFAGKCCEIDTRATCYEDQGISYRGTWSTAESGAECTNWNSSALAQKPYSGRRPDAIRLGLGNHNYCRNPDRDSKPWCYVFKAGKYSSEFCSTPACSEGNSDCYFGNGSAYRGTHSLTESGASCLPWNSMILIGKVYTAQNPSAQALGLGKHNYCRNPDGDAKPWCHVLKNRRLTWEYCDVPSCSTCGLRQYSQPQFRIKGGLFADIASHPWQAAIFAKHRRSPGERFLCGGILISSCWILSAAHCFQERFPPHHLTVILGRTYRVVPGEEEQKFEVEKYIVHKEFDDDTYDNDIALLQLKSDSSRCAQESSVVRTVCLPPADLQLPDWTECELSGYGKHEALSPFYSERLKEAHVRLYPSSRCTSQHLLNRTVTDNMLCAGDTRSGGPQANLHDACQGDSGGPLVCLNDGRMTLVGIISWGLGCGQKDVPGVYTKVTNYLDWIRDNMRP", "test": "In vitro inhibition of serine proteases: Sc-tPA", "type": "biochemical", "description": "(§1) To determine the inhibitory activity, 200 μl of Tris buffer (0.05 mol/l, containing the inhibitor, 0.154 mol/l NaCl, 5% ethanol pH 8.0), 25 μl of substrate (Pefachrome UK or Bz-βAla-Gly-Arg-pNA in H2O; Pentapharm Ltd., Basle, Switzerland) and 50 μl of sc-urokinase (Ribosepharm GmbH, Haan, Germany) were incubated at 25° C. After 3 min the reaction was stopped by adding 25 μl of acetic acid (50%), and the absorption at 405 nm was determined by means of a Microplate Reader (MR 5000, Dynatech, Denkendorf, Germany). Ki values were determined according to Dixon by linear regression using a computer program. The Ki values are the mean values of at least three determinations with a standard deviation of less than 25%.\n(§2) The inhibition activities of the enzymes used were determined according to the principle described in Example 3."}, "Plasma kallikrein": {"target": "Plasma kallikrein (Homo sapiens, UniProt P03952)", "sequence (P03952 20-638, species assumed)": "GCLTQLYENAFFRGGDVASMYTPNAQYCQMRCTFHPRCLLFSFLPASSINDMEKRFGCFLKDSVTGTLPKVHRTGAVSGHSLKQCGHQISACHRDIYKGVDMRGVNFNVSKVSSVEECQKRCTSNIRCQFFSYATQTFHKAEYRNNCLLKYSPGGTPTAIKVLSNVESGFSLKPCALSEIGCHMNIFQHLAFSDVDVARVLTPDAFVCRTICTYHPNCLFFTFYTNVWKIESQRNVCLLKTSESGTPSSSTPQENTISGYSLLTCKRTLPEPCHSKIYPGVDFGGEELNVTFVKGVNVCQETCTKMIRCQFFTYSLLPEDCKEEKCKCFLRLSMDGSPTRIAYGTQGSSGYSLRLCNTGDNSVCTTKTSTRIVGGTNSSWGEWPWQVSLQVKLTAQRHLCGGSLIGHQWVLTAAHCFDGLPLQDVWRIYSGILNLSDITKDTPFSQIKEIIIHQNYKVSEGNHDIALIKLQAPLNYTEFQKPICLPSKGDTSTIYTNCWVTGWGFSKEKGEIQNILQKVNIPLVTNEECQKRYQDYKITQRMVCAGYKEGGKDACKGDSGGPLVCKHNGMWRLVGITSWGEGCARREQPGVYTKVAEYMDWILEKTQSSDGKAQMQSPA", "test": "In vitro inhibition of serine proteases: plasma kallikrein", "type": "biochemical", "description": "as §1, §2"}, "[2]": {"system": "pancreatic adenocarcinoma CA20948", "test": "Pancreatic carcinoma model in rats", "type": "in vivo, rat", "conditions": "for mass of the tumor-containing pancreas, reduced by % / masses of the subcutaneous tumors, reduced by %: vs vehicle-treated group", "description": "Fragments of the transplantable and metastasizing pancreatic adenocarcinoma CA20948 from rats were explanted from donor animals. After cell isolation, equal amounts of suspended tumor cells together with 2 mg of Matrigel were subcutaneously implanted into each of the acceptor animals, male 10 week-old Lewis rats (n=9). The treatment procedure and also the composition of the therapy groups were the same as under A).\nThe experiments described in sections A and B were repeated with the inhibitor administered in a different way. For this, the inhibitor was administered subcutaneously in the breast carcinoma model (n=9) and intraperitoneally in the pancreatic adenocarcinoma model (n=8) without changing the daily dose. The results of these repeat experiments corresponded to the results already discussed, both in tendency and extent."}, "[3]": {"system": "human breast carcinoma cells (MDA-BA-231)", "test": "Human breast cancer cells in nude mice", "type": "in vivo, Balb/c nude mice", "conditions": "1.2 mg/kg i.p. twice a week, vs control (FIG. 6)", "description": "In order to test the in vivo efficacy of the inhibitor for inhibiting tumor growth of human breast carcinoma cells (MDA-BA-231), 6×10^6 cells were injected subcutaneously into the right flank of Balb/c nude mice (4-6 weeks old). The tumor cells were preincubated with the synthetic uPA inhibitor prior to inoculation. After 24 h, the mice were treated twice a week intraperitoneally with a dose of 1.2 mg/kg body weight as described under A). The tumor size was determined weekly by measuring the two largest diameters."}, "[4]": {"test": "Solubility in Tris buffer", "conditions": "Tris buffer (pH 7.3)"}, "[5]": {"conditions": "1 mg/kg daily, vs naphthyl derivative and control (FIG. 5)"}}, "data": [{"compound": "CCOC(=O)N1CCN(C(=O)[C@H](Cc2cccc(C(=N)N)c2)NS(=O)(=O)c2c(C(C)C)cc(C(C)C)cc2C(C)C)CC1.Cl", "note": "[uPA inhibitor, Nα-2,4,6-Triisopropylphenylsulfonyl-(L)-3-amidinophenylalanine 4-ethoxycarbonylpiperazide hydrochloride]", "values": [{"measurement": "Ki", "setting": "[1]", "value": 4.9, "unit": "µM"}, {"measurement": "Ki", "setting": "Plasma kallikrein", "value": 7.2, "unit": "µM"}, {"measurement": "growth of developing rat pancreatic carcinomas", "setting": "[2]; [5]", "value": "decrease"}, {"measurement": "tumor weight", "setting": "[2]; [5]", "value": "significant reduction"}, {"measurement": "number of detected liver foci, % compared to vehicle-treated control", "setting": "[2]; i.p., 1 mg/kg daily", "value": 29, "unit": "%"}, {"measurement": "mass of the tumor-containing pancreas, reduced by %", "setting": "[2]; i.p., 1 mg/kg daily", "value": 76, "unit": "%"}, {"measurement": "masses of the subcutaneous tumors, reduced by %", "setting": "[2]; i.p., 1 mg/kg daily", "value": 54, "unit": "%"}, {"measurement": "number of metastatic liver foci", "setting": "[2]; rat pancreatic cancer model, vs vehicle-treated controls", "value": "substantially reduced"}, {"measurement": "number of detected liver foci, % compared to vehicle-treated control", "setting": "[2]; s.c., 1 mg/kg daily", "value": 2, "unit": "%"}, {"measurement": "mass of the tumor-containing pancreas, reduced by %", "setting": "[2]; s.c., 1 mg/kg daily", "value": 34, "unit": "%"}, {"measurement": "masses of the subcutaneous tumors, reduced by %", "setting": "[2]; s.c., 1 mg/kg daily", "value": 60, "unit": "%"}, {"measurement": "tumor volume increase", "setting": "[3]", "value": "significantly more slowly"}, {"measurement": "solubility", "setting": "[4]; addition of 5% DMSO", "value": "10^−3 mol/l"}, {"measurement": "solubility", "setting": "[4]; addition of 5% ethanol", "value": "2×10^−4 moll"}]}]}
